Measured values taken from PMC12677699, “Utilizing Proteolytic‐Resistant Nano‐Short Peptide Based on Naphthyl Tail‐Anchored to Combat Bacterial Infections” (Advanced Science, 2025).
Converted amounts (≈) assume the structure as drawn. Non-standard residues stand in square brackets, D forms with d. Residues, ends and D or L forms follow the SMILES beside them. ξ: configuration not given here. ξAhp(2) = CCCCCC(N)C(=O)O

Experiments:
E. coli 078 = format: cell-based, Escherichia coli
In short: (§1)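 Strains are revived, grown to log phase in MHB and adjusted to a final 0.5–1 × 10⁶ CFU mL^−1. Peptide is serially diluted in 0.2% BSA and combined in equal volume with the suspension. Plates incubate 20–22 h at 37 °C before absorbance is read at 492 nm.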

E. coli 25922 = format: cell-based, Escherichia coli
In short: as §1

E. coli UB1005 = format: cell-based, Escherichia coli
In short: as §1

S. pullorum C7913 = format: cell-based
In short: as §1

S. typhimurium 14028 = format: cell-based, Salmonella typhimurium
In short: as §1

S. typhimurium 7731 = format: cell-based, Salmonella typhimurium
In short: as §1

S. aureus 25923 = format: cell-based, Staphylococcus aureus
In short: as §1

S. aureus 29213 = format: cell-based, Staphylococcus aureus
In short: as §1

S. epidermidis 12228 = format: cell-based, Staphylococcus epidermidis
In short: as §1

[1] = LPS binding, BODIPY-TR-cadaverine displacement; details: BC displacement, polymyxin B 10 µg mL^−1 = 100%, n = 3
Protocol: (§2) The binding ability of nano‐short peptides to LPS and LTA was evaluated using a BODIPY‐TR‐cadaverine (BC) displacement assay.^[ [59] ^] Test solutions containing LPS or LTA (50 µg mL^−1) were pre‐incubated with BC dye (5 µg mL^−1) for 4 h in the dark. Peptide solutions at varying concentrations were then mixed with the LPS or LTA, polymyxin B (final concentration 10 µg mL^−1) was used as a positive control, and LPS or LTA mixed with dye solution was used as a negative control. The fluorescence intensity (excitation λ = 580 nm, emission λ = 620 nm) was measured. %ΔF (au) = [(F treated – F negative control)/(F positive control – F negative control)] × 100%.

[2] = LTA binding, BODIPY-TR-cadaverine displacement; details: BC displacement, n = 3
Protocol: as §2

E. coli ATCC 25922 [3] = test: Outer membrane permeability, NPN; format: cell-based, Escherichia coli; details: n = 3
Protocol: The NPN fluorescent probe was used to assess the permeability of the outer membrane.^[ [29] ^] A logarithmic phase culture of E. coli ATCC 25922 bacterial solution was diluted to OD600 = 0.2 in a 5 × 10^−3 M HEPES buffer (pH = 7.4 with 5 × 10^−3 M glucose). Following the addition of NPN (final concentration: 10 × 10^−6 M), the mixture was incubated for 30 min in the dark. Subsequently, the bacterial suspension was mixed with an equal volume of nano‐short peptides solution at different concentrations. Polymyxin B (10 µg mL^−1) was used as a positive control, while an untreated bacterial dilution served as the negative control. Fluorescence intensity was measured (excitation λ = 350 nm, emission λ = 420 nm) using a microplate reader. The percentage of outer membrane permeability was calculated as: Permeability% = [(F treated – F negative control)/(F positive control – F negative control)] × 100%.

E. coli ATCC 25922 [4] = test: Respiratory chain dehydrogenase activity, RT reduction; format: cell-based, Escherichia coli; details: 16 × 10^−6 M, E. coli ATCC 25922, 1.5 h, 37 °C; n = 3
Protocol: (§3) The inhibitory effects of nano‐short peptides on RCD activity in bacteria were evaluated using an RT reduction assay.^[ [58] ^] Logarithmic growth stage E. coli ATCC 25922 and S. aureus ATCC 29213 bacterial solutions were diluted to OD600 = 0.4 in MHB liquid medium. A mixed solution was prepared by combining RT (1 mg mL^−1), glucose (100 × 10^−3 M), and Tris‐HCl buffer (50 × 10^−3 M, pH 8.6) in equal volumes (1:1:1). In 96‐well microplates, serial dilutions of nano‐short peptides were prepared using the mixed solution, followed by addition of an equal volume of bacterial suspension. Following incubation at 37 °C for 1.5 h, the absorbance at 492 nm was measured using a microplate reader, with untreated bacterial suspensions serving as controls.

S. aureus ATCC 29213 [5] = test: as above; format: cell-based, Staphylococcus aureus; details: 16 × 10^−6 M, S. aureus ATCC 29213, 1.5 h, 37 °C; n = 3
Protocol: as §3

E. coli ATCC 25922 [6] = test: ROS generation, DCFH-DA; format: cell-based, Escherichia coli; details: 16 × 10^−6 M, E. coli ATCC 25922, DCFH-DA, 1 h; n = 3
Protocol: (§4) ROS accumulation levels were assessed by the fluorescent probe DCFH‐DA.^[ [63] ^] Logarithmic growth stage E. coli ATCC 25922 and S. aureus ATCC 29213 bacterial solutions were diluted to OD600 = 0.4 in PBS (pH = 7.4, 10 × 10^−3 M), followed by incubation with DCFH‐DA final concentration of 10 × 10^−6 M) for 30 min at 37 °C. Subsequently, the bacterial suspensions were then mixed with different concentrations of nano‐short peptides dilutions in equal volumes in a 96‐well plate and continued to incubate for 1 h (37 °C). Finally, the fluorescence intensity was measured using a microplate reader (excitation λ = 488 nm, emission λ = 525 nm).

S. aureus ATCC 29213 [7] = test: ROS generation, DCFH-DA; format: cell-based, Staphylococcus aureus; details: 16 × 10^−6 M, S. aureus ATCC 29213, DCFH-DA, 1 h; n = 3
Protocol: as §4

Compound	MIC, E. coli 078 (E. coli 078) [µM]	MIC, E. coli 25922 (E. coli 25922) [µM]	MIC, E. coli UB1005 (E. coli UB1005) [µM]	MIC, S. pullorum C7913 (S. pullorum C7913) [µM]	MIC, S. typhimurium 14028 (S. typhimurium 14028) [µM]	MIC, S. typhimurium 7731 (S. typhimurium 7731) [µM]	MIC, S. aureus 25923 (S. aureus 25923) [µM]	MIC, S. aureus 29213 (S. aureus 29213) [µM]	MIC, S. epidermidis 12228 (S. epidermidis 12228) [µM]	LPS binding, % of polymyxin B's binding efficiency ([1]; 8 × 10^−6 M) [%]	LPS binding, % of polymyxin B's binding efficiency ([1]; 16 × 10^−6 M) [%]	LTA binding capacity, % of the antibiotic control ([2]; 8 × 10^−6 M) [%]	LTA binding capacity, % of the antibiotic control ([2]; 16 × 10^−6 M) [%]	outer membrane disruption compared to polymyxin B (E. coli ATCC 25922 [3]; 8 × 10^−6 M) [%]	outer membrane disruption compared to polymyxin B (E. coli ATCC 25922 [3]; 16 × 10^−6 M) [%]	RCD activity reduced to (E. coli ATCC 25922 [4]) [%]	RCD activity reduced to (S. aureus ATCC 29213 [5]) [%]	increase of ROS content vs untreated bacteria (E. coli ATCC 25922 [6]) [fold]	increase of ROS content vs untreated bacteria (S. aureus ATCC 29213 [7]) [fold]
N=C(N)NCCC[C@H](NC(=O)[C@@H](CCCNC(=N)N)NC(=O)[C@H](Cc1cccc2ccccc12)NC(=O)[C@H](Cc1cccc2ccccc12)NC(=O)[C@H](Cc1cccc2ccccc12)NC(=O)[C@@H](N)Cc1cccc2ccccc12)C(=O)N[C@@H](CCCNC(=N)N)C(=O)N1CCC[C@H]1C(=O)O (stereo in doubt) [Peptide N4]	8 (≈ 11 µg/mL)	8 (≈ 11 µg/mL)	4 (≈ 5.49 µg/mL)	4 (≈ 5.49 µg/mL)	8 (≈ 11 µg/mL)	8 (≈ 11 µg/mL)	4 (≈ 5.49 µg/mL)	4 (≈ 5.49 µg/mL)	4 (≈ 5.49 µg/mL)	60.67	99.47	65.60	73.08	92.06	108.41	60.10	18.84	2.26	1.83
CCCCCC(N)C(=O)NC(CCCCC)C(=O)NC(CCCCC)C(=O)NC(CCCCC)C(=O)N[C@H](CCCNC(=N)N)C(=O)N[C@@H](CCCNC(=N)N)C(=O)N[C@@H](CCCNC(=N)N)C(=O)N1CCC[C@H]1C(=O)O (some centres unmarked) [Peptide B4] (H-[ξAhp(2)][ξAhp(2)][ξAhp(2)][ξAhp(2)][dR]RRP-OH; N-terminus assumed)	16 (≈ 17.5 µg/mL)	16 (≈ 17.5 µg/mL)	8 (≈ 8.74 µg/mL)	16 (≈ 17.5 µg/mL)	128 (≈ 140 µg/mL)	32 (≈ 35 µg/mL)	32 (≈ 35 µg/mL)	16 (≈ 17.5 µg/mL)	32 (≈ 35 µg/mL)	40.51	54.24	85.77	96.79	37.37	57.94	70.75	34.12	1.51	1.38
